pIC50: −log10 of the molar value. Where two headings read alike, the source gives them in different places.
Tests used:
Type in all cases: cell-based
BRD4 = target: T1, BRD4 (Homo sapiens, UniProt O60885); assay: Down-regulation/degradation of BRD4 determined by Western blot in CWR22RV1 cells; conditions: concentration 100 nM, 24 h
T1 construct: CWR22RV1 cells were subcultured in cell culture media; endogenous in cells; host or cells: CWR22RV1 cells
Method: (§1) The Down-Regulation on the Protein Expression of Androgen Receptors AR and Brd4 Determined by Western Blot CWR22RV1 cells (National Collection of Authenticated Cell Cultures. TCHu100) FBS (Gibco, Cat. No. 10099-141) 0.01M PBS (Biosharp. Cat. No. 162262) RIPM1640 (Hyclone, Cat. No. 308090.01) Penicillin-Streptomycin (Hyclone. Cat. No. SV30010) DMSO (Sigma. Cat. No. D5879) Centrifuge tube, 15 ml (Excell Bio. Cat. No. CS015-0001) Cell culture plate (Excell Bio. Cat. No. CS016-0128) 6-well cell culture cluster (Corning, Cat. No. 3516) RIPA lysate buffer (Beyotime, Cat. No. P0013B) Protein loading buffer (Beyotime, Cat. No. P0015L) CA protein assay kit (Beyotime, Cat. No. P0012) SDS-PAGE gel preparation kit (Chengdu Baihe Technology Co., Ltd. Cat. No. PG112) Anti-β-tubulin mouse mAb (Zen Bioscience, Cat. No. 200608) Androgen Receptor ([…]) XP Rabbit mAb (CST. Cat. No. 5153) Anti-cMyc(D3N8F) Rabbit mAb (CST. Cat. No. 13987) Anti-BRD4(E2A7X) rabbit mAb (CST, Cat. No. 13440) Peroxidase Affinipure(HRP) Goat Anti-Mouse IgG (Zen Bioscience, Cat. No. 511103) Peroxidase Affinipure(HRP) Goat Anti-Rabbit IgG (Zen Bioscience, Cat. No. 511203) TBST (Biosharp. Cat. No. B[…]) ECL chemiluminescence kit (Beyotime, Cat. No. […]1 cells were subcultured in cell culture media, and then the cells in good growth condition were seeded in a 6-well plate at 2 ml/well (1×10^6 cells/well), and cultured overnight in a 37° C., 5% CO2 cell incubator. 2) The drug was prepared as a 10 mM stock solution with dimethyl sulfoxide (DMSO). […] The plate was gently tapped to thoroughly mix. In addition, the experiment included negative control wells (containing equal amount of DMSO) and positive control wells. 3) After culturing 24 hi, the cells were lysed with RIPA cell lysate, and the protein was extracted. […] The first antibody (Androgen Receptor ([…]) XP Rabbit mAb. Anti-cMyc(D3N8F) Rabbit mAb, Anti-BRD4(E2A7X) rabbit mAb and Anti-β-Tubulin Mouse mAb) was added and incubated overnight at 4° C. The membrane was rinsed with TBST solution three times, 10 min for each time. The secondary antibody (horseradish peroxidase labeled goat anti mouse IgG) was added and incubated at room temperature for 2 h, and then the membrane was washed with TBST solution three times, 10 m for each time. Finally. ECL chemiluminescence solution was added, and then photos were taken with automatic chemiluminescence instrument to collect pictures for analysis.

Androgen receptor (AR) = assay: Down-regulation/degradation of AR determined by Western blot in CWR22RV1 cells; conditions: concentration 100 nM, 24 h
Method: as §1

LNCaP/AR cells = assay: Inhibition of the proliferation of LNCap/AR cells (CCK-8); conditions: read-out: LNCap/AR IC50
Method in brief: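 Proliferation was read by CCK-8 (OD 450 nm, 1 h) after six days of compound exposure. Cells were seeded at 1000 per well overnight, then dosed in duplicate over nine 3-fold steps with a top final concentration of 10 μM in 0.1% DMSO; IC50 was fitted from inhibition curves.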

22RV1 cells = assay: Inhibition of the proliferation of drug-resistant prostate cancer cell 22RV1 (CCK-8); conditions: 22RV1 cells (enzalutamide-resistant), same method
Method in brief: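 22RV1 cells, 1000/well in RPMI1640 with 10% FBS, treated in duplicate with 9-point 3-fold dilutions from 10 μM (0.1% DMSO final). After 6 days at 37 °C, CCK-8 added for 1 h and OD450 read. IC50 from dose-response inhibition fit.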

[1] = 144 h, LNCaP/AR cells, 6 days culture, CCK-8
[2] = LNCaP/AR cells, 6 days culture, CCK-8

Compound	pIC50 (LNCaP/AR cells; [1])	pIC50 (22RV1 cells; Homo sapiens)	pIC50 (LNCaP/AR cells; [2])	pIC50 (22RV1 cells)	BRD4 (% degradation) (BRD4)	AR (% degradation) (Androgen receptor (AR))	pIC50 (LNCaP/AR cells; LNCaP/AR, 144 h)
Cc1ccc(-c2c(C)noc2C)cc1N(CCCCCOCC(=O)N[C@H](C(=O)N1C[C@H](O)C[C@H]1C(=O)N[C@@H](C)c1ccc(-c2scnc2C)cc1)C(C)(C)C)c1ccc(-n2ccnc2)c(Br)c1 [Compound 10, (2S,4R)-1-((S)-2-(2-((5-((3-bromo-4-(1H-imidazol-1-yl)phenyl)(5-(3,5-dimethylisoxazol-4-yl)-2-methylphenyl)amino)n-pentyl)oxy)acetylamino)-3,3-dimethylbutyryl)-4-hydroxy-N—((S)-1-(4-(4-methylthiazol-5-yl)phenyl)ethyl)pyrrolidinyl-2-formamide]	> 7.00	–	–	–	B (79%-50% of the target protein was degraded)	B (79%-50% of the target protein was degraded)	–
Cc1ccc(-c2c(C)noc2C)cc1N(CCCCNc1cc2c(cc1F)C(=O)N(C1CCC(=O)NC1=O)C2)c1ccc(C2(C#N)CC2)cc1 (centres unmarked) [Compound 43, 1-(4-((5-(3,5-Dimethylisoxazol-4-yl)-2-methylphenyl)(4-((2-(2,6-dioxopiperidin-3-yl)-6-fluoro-1-oxoisoindolin-5-yl)amino)butyl)amino)phenyl)cyclopropane-1-nitrile]	5.70 to 6.30	> 7.00	–	–	C (49%-20% of the target protein was degraded)	B (79%-50% of the target protein was degraded)	–
Cc1ccc(-c2c(C)noc2C)cc1N(CCCCCNc1ccc2c(c1)CN(C1CCC(=O)NC1=O)C2=O)c1ccc(C#N)c(Cl)c1 (centres unmarked) [Compound 63, 2-chloro-4-((5-(3,5-dimethylisoxazol-4-yl)-2-methylphenyl)(5-((2-(2,6-dioxopiperidin-3-yl)-1-oxoisoindolin-5-yl)amino)pentyl)amino)benzonitrile]	–	> 7.00	–	–	C (49%-20% of the target protein was degraded)	C (49%-20% of the target protein was degraded)	> 7.00
Cc1ccc(-c2c(C)noc2C)cc1N(c1ccc(C2(C#N)CC2)cc1)C1CN([C@H]2C[C@@H](Nc3cc4c(cc3F)CN([C@H]3CCC(=O)NC3=O)C4=O)C2)C1 [Compound 68, 1-(4-((5-(3,5-dimethylisoxazol-4-yl)-2-methylphenyl)(1-((1s,3s)-3-((2-(2,6-dioxopiperidin-3-yl)-6-fluoro-3-oxoisoindolin-5-yl)amino)cyclobutyl)azetidin-3-yl)amino)phenyl)cyclopropane-1-nitrile]	–	–	> 7.00	> 7.00	A (>80% of the target protein was degraded)	D (<20% of the target protein was degraded)	–
Cc1ccc(-c2c(C)noc2C)cc1N(CC(C)OC1CCN(c2ccc3c(c2)C(=O)N(C2CCC(=O)NC2=O)C3=O)CC1)c1ccc(C2(C#N)CC2)cc1 (centres unmarked) [Compound 106]	5.70 to 6.30	> 7.00	–	–	B (79%-50% of the target protein was degraded)	C (49%-20% of the target protein was degraded)	–
Cc1ccc(-c2c(C)noc2C)cc1N(CCOC1(C)CN(c2cc3c(cc2F)C(=O)N(C2CCC(=O)NC2=O)C3=O)C1)c1ccc(C2(C#N)CC2)cc1 (centres unmarked) [Compound 111, 1-(4-((5-(3,5-Dimethylisoxazol-4-yl)-2-methylphenyl)(2-((1-(2-(2,6-dioxopiperidin-3-yl)-6-fluoro-1,3-dioxoisoindolin-5-yl)-3-methylazetidin-3-yl)oxy)ethyl)amino)phenyl)cyclopropanecarbonitrile]	< 5.70	6.30 to 7.00	–	–	D (<20% of the target protein was degraded)	D (<20% of the target protein was degraded)	–
Cc1ccc(-c2c(C)noc2C)cc1N(CC1CCN(CCNc2ccc3c(c2)C(=O)N(C2CCC(=O)NC2=O)C3=O)CC1)c1ccc(C2(C#N)CC2)cc1 (centres unmarked) [Compound 117]	5.70 to 6.30	> 7.00	–	–	B (79%-50% of the target protein was degraded)	D (<20% of the target protein was degraded)	–
Cc1ccc(-c2c(C)noc2C)cc1N(CCCCCNc1ccc2c(c1)CN(C1CCC(=O)NC1=O)C2=O)c1ccc(C2(C#N)CC2)cc1 (centres unmarked) [Compound 145, 1-(4-((5-(3,5-dimethylisoxazol-4-yl)-2-methylphenyl)(5-((2-(2,6-dioxopiperidin-3)-1-isoindolinone-5-yl))amino)pentyl)amino)phenylcyclopropanecarbonitrile]	> 7.00	–	–	–	C (49%-20% of the target protein was degraded)	C (49%-20% of the target protein was degraded)	–

Further lines, with some results ahead:

pIC50 (LNCaP/AR cells; [1])	pIC50 (22RV1 cells; Homo sapiens)	pIC50 (LNCaP/AR cells; [2])	pIC50 (22RV1 cells)	Compound	BRD4 (% degradation) (BRD4)	AR (% degradation) (Androgen receptor (AR))	pIC50 (LNCaP/AR cells; LNCaP/AR, 144 h)
5.70 to 6.30	6.30 to 7.00	–	–	Cc1ccc(-c2c(C)noc2C)cc1N(CC1CC(Nc2cc3c(cc2F)C(=O)N(C2CCC(=O)NC2=O)C3=O)C1)c1ccc(C2(C#N)CC2)cc1 (centres unmarked) [Compound 37]	D (<20% of the target protein was degraded)	D (<20% of the target protein was degraded)	–
5.70 to 6.30	> 7.00	–	–	Cc1ccc(-c2c(C)noc2C)cc1N(CC1CC(Nc2cc3c(cc2F)C(=O)N(C2CCC(=O)NC2=O)C3)C1)c1ccc(C2(C#N)CC2)cc1 (centres unmarked) [Compound 39]	C (49%-20% of the target protein was degraded)	C (49%-20% of the target protein was degraded)	–
–	–	5.70 to 6.30	> 7.00	Cc1ccc(-c2c(C)noc2C)cc1N(c1ccc(C2(C#N)CC2)cc1)C1CN([C@H]2C[C@H](Nc3cc4c(cc3F)CN([C@@H]3CCC(=O)NC3=O)C4=O)C2)C1 [Compound 70]	C (49%-20% of the target protein was degraded)	C (49%-20% of the target protein was degraded)	–
5.70 to 6.30	5.70 to 6.30	–	–	Cc1ccc(-c2c(C)noc2C)cc1N(CCOC1(C)CN(c2cc3c(cc2F)C(=O)N(C2CCC(=O)NC2=O)C3)C1)c1ccc(C2(C#N)CC2)cc1 (centres unmarked) [Compound 113, 1-(4-((5-(3,5-Dimethylisoxazol-4-yl)-2-methylphenyl)(2-((1-(2-(2,6-dioxopiperidin-3-yl)-6-fluoro-1-oxoisoindolin-5-yl)-3-methylazetidin-3-yl)oxy)ethyl)amino)phenyl)cyclopropanecarbonitrile]	C (49%-20% of the target protein was degraded)	D (<20% of the target protein was degraded)	–
6.30 to 7.00	> 7.00	–	–	Cc1ccc(-c2c(C)noc2C)cc1N(CCCOC1CN(c2cc3c(cc2F)C(=O)N(C2CCC(=O)NC2=O)C3=O)C1)c1ccc(C2(C#N)CC2)cc1 (centres unmarked) [Compound 120, 1-(4-((5-(3,5-dimethylisoxazol-4-yl)-2-methylphenyl)(3-((1-(2-(2,6-dioxopiperidin-3-yl)-6-fluoro-1,3-dioxoisoindol-5-yl)azetidin-3-yl)oxy)propyl)amino)phenyl)cyclopropane-1-carbonitrile]	B (79%-50% of the target protein was degraded)	D (<20% of the target protein was degraded)	–
> 7.00	–	–	–	Cc1ccc(-c2c(C)noc2C)cc1N(CCCCCNc1ccc2c(c1)C(=O)N(C1CCC(=O)NC1=O)C2=O)c1ccc(C2(C#N)CC2)cc1 (centres unmarked) [Compound 147, 1-(4-((5-(3,5-Dimethylisoxazol-4-yl)-2-methylphenyl)(5-((2-(2,6-dioxopiperidin-3)-1,3-dicarbonylisoindolin-5))amino)pentyl)amino)phenylcyclopropanecarbonitrile]	A (>80% of the target protein was degraded)	C (49%-20% of the target protein was degraded)	–
